The values that follow come from publication PMC4658560, “Assessment of pharmacokinetic compatibility of short acting CDRI candidate trioxane derivative, 99–411, with long acting prescription antimalarials, lumefantrine and piperaquine” (Scientific Reports, 2015).

Usually AUC(0-inf) stands for total exposure, with the tail of the curve extrapolated. By CL/F is commonly meant the apparent clearance, not corrected for the fraction that reaches the circulation. As usually defined, the Cmax is the peak of the concentration-time curve. What is called Tmax is the time at which the peak concentration occurs. What is called Vd/F is the apparent distribution volume after extravascular dosing. As a reminder, the half-life is how long it takes for the measured level to halve. The AUC(0-t) is exposure summed from dosing to a finite time, without extrapolation to infinity.

The test system of one data set is CYP3A4. The arrangement: method as in PMID 21503937, PMID 10727880, PMID 11463111. The note with it: cited from earlier work.
A short description of data set [1]: Stability in rat plasma (autosampler, bench top, freeze/thaw, long-term freezer). It counts as in vitro ADME. How it is done: Validation was carried out as per US FDA bioanalytical method validation guidelines. The extraction recovery of analytes, through protein precipitation extraction procedure, was determined by comparing the peak areas of extracted plasma (pre-spiked) standard QC samples (n = 6) to those of the post-spiked standards at equivalent concentrations (QC low, QC medium and QC high concentrations for the analytes and 50 ng/mL for IS). Specificity and selectivity was studied by using independent plasma samples from six different rats to investigate the potential interferences at the LC peak region for analyte and IS, using the proposed extraction procedure and chromatographic–MS conditions. Matrix effect was determined by comparing the responses of the post-extracted plasma standard QC samples (n = 6) with the response of analytes from neat standard samples, for all analytes at LLOQ[22]. Calibration curve was constructed using […] calibration standards of LUME and 99–411 and of PPQ and 99–411 (3.9, 7.8, 15.6, 31.25, 62.5, 125, 250 and 500 ng/mL) by spiking 90 μL of pooled drug free rat plasma with the appropriate working standard solution of the analytes (10 μL). The intra-day assay precision and accuracy were estimated by analyzing six replicates at four the QC levels, i.e., 3.9/7.8, 10, 100 and 400 ng/mL,for both the combinations. The inter-assay precision was determined by analyzing the four levels QC samples on three different runs. The criteria for acceptability of the data included accuracy within ± 15% deviation from the nominal values and a precision of within ± 15% relative standard deviation (R.S.D.), except for LLOQ, where it should not exceed ± 20% of accuracy as well as precision. All stability studies were conducted at two concentration levels, i.e. […] The dilution integrity experiment was performed to validate the dilution test to be carried out on higher analyte concentrations (above the upper limit of quantification), which may be encountered during real subject samples analysis. Dilution integrity experiments were carried out by 20 times dilution of plasma samples containing 8000 ng/mL of LUME and 99–411 and PPQ and 99–411 with blank plasma to obtain samples containing 400 ng/mL of the respective combinations.

Data set [2] can be described thus: In situ single-pass intestinal perfusion permeability study. Format: in vivo. The settings on record: male, SD, rat, other: single-pass perfusion through the jejunal lumen, rat jejunum, read-out: effective permeability. The method, then: Single-pass intestinal perfusion studies in rats (n = 5 per group) were performed using established methods adapted from the literature. Briefly, male SD rats were fasted overnight for 12 to 16 h with free access to water and anaesthetized using an intra-peritoneal injection of urethane (1 g/kg) and placed on a heated pad to keep normal body temperature. Upon verification of the loss of pain reflex, a midline longitudinal abdominal incision was made, and the lumen of the jejunum (10 cm) was catherised and flushed with 10 ml of saline pre-warmed to 37 °C. The solution of analytes (10 μM) was prepared in perfusion buffer and passed at a flow rate of 0.2 mL/min through the lumen. After allowing 30 min to reach steady-state outlet concentrations, outlet perfusate samples were collected every 15 min for 120 min perfusion period. Phenol red was used as a marker of osmosis/zero permeability. At the end, the length of segment was measured without stretching and finally the animal was euthanized. Samples were analysed by LC-MS/MS after diluting 20 times with mobile phase.

The test system of the next data set is P-gp. The settings on record: cited from earlier work.
Data set [3] can be described thus: Pharmacokinetic interaction study, oral administration alone or in combination in rats. Format: in vivo, rat. The settings on record: for AUC(0-inf) / CL/F / Cmax / Tmax / Vd/F / half-life / AUC(0-t): rat, plasma, po. The method, then: Rats were divided into five groups (n = 5, each); three control groups (LUME 10 mg/kg, oral, suspension in 0.25% Sodium CMC; PPQ 50 mg/kg, oral, solution in triple distilled water; and 99–411 70 mg/kg, oral, suspension in 0.25% Sodium CMC) and two co-administration group (70 mg/kg of oral 99–411 & 10 mg/kg of oral LUME; and 70 mg/kg of oral 99–411 & 50 mg/kg of oral PPQ). The rats were fasted overnight (14–16 h) prior to the experiment but given free access to water. Blood samples were collected from the retro-orbital plexus into heparinized microfuge tubes at 0.25, 0.50, 1, 3, 6, 9, 11, 13, 15, 24, 48, 72 and 120 h post-dosing and plasma was harvested by centrifuging the blood at 15000 × g for 10 min and stored frozen at –70 ± 10 °C until bioanalysis. Plasma data were subjected to non-compartmental pharmacokinetics analysis using WinNonlin (version 5.1, Pharsight Corporation, Mountain View, USA). The pharmacokinetic parameters were compared using student’s t test. […] The relative bioavailability (RB%) was calculated according to equation 1 as follows: […]

For a further data set, the target named is T1, human P-gp (Homo sapiens, UniProt P08183).
T1 construct: purchased BD Gentest (Woburn, MA)
T1 sequence (P08183 whole entry): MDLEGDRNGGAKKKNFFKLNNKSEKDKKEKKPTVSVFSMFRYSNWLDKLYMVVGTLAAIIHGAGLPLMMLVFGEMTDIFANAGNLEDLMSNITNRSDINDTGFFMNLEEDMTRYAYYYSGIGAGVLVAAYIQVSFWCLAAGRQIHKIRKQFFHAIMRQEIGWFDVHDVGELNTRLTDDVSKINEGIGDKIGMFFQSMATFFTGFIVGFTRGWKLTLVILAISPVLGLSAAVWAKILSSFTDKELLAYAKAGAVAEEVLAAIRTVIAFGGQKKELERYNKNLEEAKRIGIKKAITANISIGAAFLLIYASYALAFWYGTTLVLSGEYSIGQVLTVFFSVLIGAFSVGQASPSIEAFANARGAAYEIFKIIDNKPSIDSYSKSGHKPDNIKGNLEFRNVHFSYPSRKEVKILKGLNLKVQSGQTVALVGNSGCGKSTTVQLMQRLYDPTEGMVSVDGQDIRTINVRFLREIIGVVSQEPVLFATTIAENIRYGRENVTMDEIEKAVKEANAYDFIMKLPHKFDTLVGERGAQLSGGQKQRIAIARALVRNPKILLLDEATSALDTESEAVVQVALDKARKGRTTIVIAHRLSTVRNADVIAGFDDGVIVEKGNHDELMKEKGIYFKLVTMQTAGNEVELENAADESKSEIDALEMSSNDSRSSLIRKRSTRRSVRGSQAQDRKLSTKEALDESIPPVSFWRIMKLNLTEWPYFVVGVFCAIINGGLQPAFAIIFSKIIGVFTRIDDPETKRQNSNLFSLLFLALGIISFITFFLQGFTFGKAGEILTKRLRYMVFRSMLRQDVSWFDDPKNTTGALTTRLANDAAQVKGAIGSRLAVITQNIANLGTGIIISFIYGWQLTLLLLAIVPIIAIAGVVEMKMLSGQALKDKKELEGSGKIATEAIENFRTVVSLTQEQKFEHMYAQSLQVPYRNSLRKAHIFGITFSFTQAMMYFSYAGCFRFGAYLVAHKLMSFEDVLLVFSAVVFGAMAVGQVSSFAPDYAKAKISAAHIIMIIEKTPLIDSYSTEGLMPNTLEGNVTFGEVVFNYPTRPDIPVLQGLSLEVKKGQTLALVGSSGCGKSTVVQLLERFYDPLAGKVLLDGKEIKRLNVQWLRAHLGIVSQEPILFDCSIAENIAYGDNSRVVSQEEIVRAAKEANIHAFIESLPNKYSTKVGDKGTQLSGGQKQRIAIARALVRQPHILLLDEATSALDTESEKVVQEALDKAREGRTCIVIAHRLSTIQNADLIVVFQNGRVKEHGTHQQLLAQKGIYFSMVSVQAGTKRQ
As to the kind of experiment: Human P-gp ATPase assay (vanadate-sensitive ATPase activity). It counts as biochemical. The note with it: concentration not given.

The mark [4] stands for this setting: 10 mg/kg, LUME 10 mg/kg oral alone (control), rats.
The mark [5] stands for this setting: 10 mg/kg, LUME 10 mg/kg oral co-administered with 99–411 70 mg/kg, rats.
The mark [6] stands for this setting: 50 mg/kg, PPQ 50 mg/kg oral alone (control), rats.
Where [7] appears, read: PPQ 50 mg/kg oral co-administered with 99–411 70 mg/kg, rats.

Read-outs that look alike come from different tables or passages of the source.

Procedure for human P-gp: A human P-gp ATPase assay was performed according to the manufacturer’s protocol. […] The reaction was initiated by the addition of 20 μL of 12 mM Mg ATP solution and was terminated 20 min later by the addition of 30 μL of stop solution (10% sodium dodecyl sulfate solution). Two hundred microliters of detection reagent (8% ascorbic acid, 0.8% ammonium molybdate, 3 mM zinc acetate) was added, and the mixture was incubated at 37 °C for 20 min. The inorganic phosphate complex was detected by its absorbance at 800 nm and was quantitated by comparing the absorbance with that of phosphate standard. […] The vanadate-sensitive ATP hydrolysis was determined by subtracting the value obtained with the vanadate-coincubated membrane fraction from that obtained with the vanadate-free membrane fraction.

Turning to `CCCCN(CCCC)CC(O)c1cc(Cl)cc2c1-c1ccc(Cl)cc1/C2=C/c1ccc(Cl)cc1` (centres unmarked) [LUME, lumefantrine], the CYP3A4 substrate status result with CYP3A4 was “CYP3A4 substrates”. The “Accuracy (%) in stability test” value in data set [1] (LUME/99-411 method, 10 ng/mL, 6 h (BT, bench top, room temperature)) amounted to 91.73%; in data set [1] (LUME/99-411 method, 10 ng/mL, 24 h (AS, autosampler)), 98.45%; in data set [1] (LUME/99-411 method, 10 ng/mL, 15 day at -70 °C), 97.80%; in data set [1] (LUME/99-411 method, 10 ng/mL, FT-3 (three freeze/thaw cycles)) it was 91.33%; in data set [1] (LUME/99-411 method, 400 ng/mL, 6 h (BT, bench top, room temperature)), 95.94%; in data set [1] (LUME/99-411 method, 400 ng/mL, 24 h (AS, autosampler)) it was 100.13%. Besides, the “Accuracy (%) in stability test” value turned out to be 101.30% in data set [1] (LUME/99-411 method, 400 ng/mL, 15 day at -70 °C) and 100.96% in data set [1] (LUME/99-411 method, 400 ng/mL, FT-3 (three freeze/thaw cycles)). The Papp at 120 min, 10 μM in data set [2] (lumefantrine co-perfused with 99–411, 10 μM) came out at 46.8 ± 13.7 ×10⁻⁶ cm/s; in data set [2] (lumefantrine control, 10 μM) it was 40.3 ± 4.9 ×10⁻⁶ cm/s. Moreover, in the data set with P-gp, the P-gp substrate status entry is “P-gp substrate”. In addition, the AUC(0-inf) in data set [3] (setting [4]) came out at 17400 ± 3290 ng·h/mL; in data set [3] (setting [5]), 16500 ± 3510 ng·h/mL. Moreover, the CL/F in data set [3] (setting [4]) was 9.83 mL/min/kg; in data set [3] (setting [5]), 10.5 mL/min/kg. Moreover, the Cmax is 1810 ± 750 ng/mL in data set [3] (setting [4]) and 1740 ± 670 ng/mL in data set [3] (setting [5]). Further, the Tmax is 3.75 ± 1.5 h in data set [3] (setting [4]) and 3.6 ± 1.34 h in data set [3] (setting [5]). For the same compound, the Vd/F amounted to 39.4 ± 6.26 L/kg in data set [3] (setting [4]) and 46.4 ± 16.4 L/kg in data set [3] (setting [5]). Also, the half-life in data set [3] (setting [4]) was 46.9 ± 6.52 h; in data set [3] (setting [5]), 50.8 ± 10.2 h. The AUC(0-t) was 16500 ± 2960 ng·h/mL in data set [3] (10 mg/kg, LUME 10 mg/kg oral alone (control), rats n=5, mean ± SD) and 15400 ± 3580 ng·h/mL in data set [3] (setting [5]).

For the compound `Clc1ccc2c(N3CCN(CCCN4CCN(c5ccnc6cc(Cl)ccc56)CC4)CC3)ccnc2c1` [PPQ, piperaquine], the “Accuracy (%) in stability test” value in data set [1] (PPQ/99-411 method, 10 ng/mL, 6 h (BT, bench top, room temperature)) was found to be 99.31%; in data set [1] (PPQ/99-411 method, 10 ng/mL, 24 h (AS, autosampler)), 105.78%; in data set [1] (PPQ/99-411 method, 10 ng/mL, 15 days at -70 °C) it was 106.75%; in data set [1] (PPQ/99-411 method, 10 ng/mL, FT-3 (three freeze/thaw cycles)), 99.51%; in data set [1] (PPQ/99-411 method, 400 ng/mL, 6 h (BT, bench top, room temperature)), 102.13%; in data set [1] (PPQ/99-411 method, 400 ng/mL, 24 h (AS, autosampler)) it was 102.48%. Also, the “Accuracy (%) in stability test” value is given as 103.59% in data set [1] (PPQ/99-411 method, 400 ng/mL, 15 days at -70 °C) and 100.98% in data set [1] (PPQ/99-411 method, 400 ng/mL, FT-3 (three freeze/thaw cycles)). Also, the “increase of Vd/F of PPQ with 99–411 co-administration” value in data set [3] (oral, rats) came out at 194.49%. The “increase of clearance (Cl/F) of PPQ with 99–411 co-administration” value in data set [3] (oral, rats) is given as 41.94%. Moreover, the “decrease of AUC0-∞ of PPQ in presence of 99–411” value in data set [3] (oral, rats, vs PPQ alone, p = 0.0018) was 61.39%. Further, the “decrease of Cmax of PPQ in presence of 99–411” value in data set [3] (oral, rats, vs PPQ alone, p = 0.0154) worked out at 61.67%. Also, the AUC(0-inf) in data set [3] (setting [6]) turned out to be 31500 ± 2680 ng·h/mL; in data set [3] (setting [7]), 19400 ± 5290 ng·h/mL. In addition, the CL/F is 26.7 mL/min/kg in data set [3] (setting [6]) and 45.5 mL/min/kg in data set [3] (setting [7]). For the same compound, the Cmax in data set [3] (setting [6]) is 890 ± 230 ng/mL; in data set [3] (setting [7]) it was 540 ± 110 ng/mL. Further, the Tmax in data set [3] (setting [6]) was determined as 6.6 ± 1.34 h; in data set [3] (setting [7]), 6 h. Besides, the Vd/F in data set [3] (setting [6]) was 49 ± 8.38 L/kg; in data set [3] (setting [7]) it was 166 ± 71.7 L/kg. In addition, the half-life in data set [3] (setting [6]) is 21.4 ± 4.39 h; in data set [3] (setting [7]), 41.7 ± 11.8 h. Moreover, the AUC(0-t) in data set [3] (50 mg/kg, PPQ 50 mg/kg oral alone (control), rats n=5, mean ± SD) worked out at 28100 ± 2790 ng·h/mL; in data set [3] (setting [7]) it was 17000 ± 5030 ng·h/mL.

As for `CC(C)NCC(O)COc1cccc2ccccc12` (centres unmarked) [propranolol], the “basal ATPase activity in the presence of the negative control” value on human P-gp amounted to 0.96.
